Source: US7956047B2, “Use of chondroitin sulphate E (CS-E) for the treatment of diseases or conditions related to collagen fibril formation” (AnaMar AB, priority 2004, dated 2011)
“Also recorded” adds a separate entry of the source.

B1: fibromodulin (protein, UniProt Q06828 19-376, looked up)
Fibromodulin: QYEDDPHWWFHYLRSQQSTYYDPYDPYPYETYEPYPYGVDEGPAYTYGSPSPPDPRDCPQECDCPPNFPTAMYCDNRNLKYLPFVPSRMKYVYFQNNQITSIQEGVFDNATGLLWIALHGNQITSDKVGRKVFSKLRHLERLYLDHNNLTRMPGPLPRSLRELHLDHNQISRVPNNALEGLENLTALYLQHNEIQEVGSSMRGLRSLILLDLSYNHLRKVPDGLPSALEQLYMEHNNVYTVPDSYFRGAPKLLYVRLSHNSLTNNGLASNTFNSSSLLELDLSYNQLQKIPPVNTNLENLYLQGNRINEFSISSFCTVVDVVNFSKLQVLRLDGNEIKRSAMPADAPLCLRLASLIEI
B2: decorin (protein, UniProt P07585 31-359, looked up)
Decorin: DEASGIGPEVPDDRDFEPSLGPVCPFRCQCHLRVVQCSDLGLDKVPKDLPPDTTLLDLQNNKITEIKDGDFKNLKNLHALILVNNKISKVSPGAFTPLVKLERLYLSKNQLKELPEKMPKTLQELRAHENEITKVRKVTFNGLNQMIVIELGTNPLKSSGIENGAFQGMKKLSYIRIADTNITSIPQGLPPSLTELHLDGNKISRVDAASLKGLNNLAKLGLSFNSISAVDNGSLANTPHLRELHLDNNKLTRVPGGLAEHKYIQVVYLHNNNISVVGSSDFCPPGHNTKKASYSGVSLFSNPVQYWEIQPSTFRCVYVRSAIQLGNYK

Assays:
collagen monomers = conditions: literature / manuscript of the applicant's laboratory; cited from earlier work
[1] = tested on: collagen fibril formation (collagen monomers, collagen type I / collagen type II); assay: In vitro collagen fibrillogenesis assay (turbidity / light scattering); assay type: biochemical, bovine; conditions: for effect on collagen fibril formation (CFF): purified free CS chains added to collagen monomers (330 nM), pH 7.4, FIG. 2 panel A
Experimental: Bovine pepsin-extracted collagen type I was purchased from Vitrogen. Collagen II was pepsin extracted from bovine tracheal cartilage, as previously described (Vogel, K. G., Paulsson, M., and Heinegård, D. (1984) Biochem. J. 223, 587-597). The fibrillogenesis assay has been previously described (Hedborn, E. and Heinegård, D. (1989) J. Biol. Chem. 264, 6898-6905).
Briefly, a solution of collagen monomers (330 nM) was brought to neutral pH by addition of an appropriate volume of 0.012M NaOH, and buffered by 20 mM HEPES, 150 mM NaCl at pH 7.4. Perlecan fragment was added at concentrations equimolar to that of collagen or at one tenth the molar concentration of collagen. The sample was mixed vigorously and briefly, and transferred to a cuvette. The sample was incubated at 37° C. (collagen type I) or 35° C. (collagen type II) in water-jacketed cuvettes in the spectrophotometer, and the absorbance due to light scattering at 400 nm (collagen type I) or 313 nm (collagen type II) was monitored over a duration of 5-18 hrs. The increased absorbance/turbidity depends on increasing fibre formation.
Fibrillogenesis was performed as described above. CS-E from squid was purchased from Calbiochem. 0.13 μg/ml corresponding to the molar concentration of GAG chains in previous experiments using recombinant perlecan domain I variants with HS/CS (PG IB) (33 nM).

Row | Molecule | effect on formation of collagen fibres from monomers in vitro (collagen monomers) | effect on collagen fibril formation (CFF) [1] | concentration at which the stimulatory effect on fibril formation reaches saturation ([1]; FIG. 2 panel B) | dose dependence of the stimulatory effect on collagen fibril formation ([1]; FIG. 2 panel B)
1 | cartilage oligomeric matrix protein [COMP] | accelerates the formation of fibres from monomers |  |  | 
2 | chondroitin-6 sulphate [CS-6, reference compound] |  | none of the other CS variants had any significant effect; also recorded: none of the other tested chondroitin sulphate variants (CS-D and CS-6) gives a positive result; also recorded: neither CS-6 nor CS-D had any effect |  | 
3 | chondroitin sulphate E [CS-E] |  | effective in collagen fibril formation; also recorded: positive result on collagen fibril formation; also recorded: dramatic effects on fibril formation | 30 µg/mL | dose-dependent
4 | B1 | slow down fibre formation in vitro |  |  | 
5 | B2 | slow down fibre formation in vitro |  |  | 
